# Measurements taken from ChEMBL document CHEMBL1909046, “DrugMatrix in vitro pharmacology data”.
# Columns and labels:
# Cannabinoid receptor 1 = Cannabinoid receptor 1 (Homo sapiens, UniProt P21554); type: cell membranes, Chem-1, Membrane
# [1] = target: T1, Muscarinic acetylcholine receptor M2 (Homo sapiens, UniProt P08172); type: cell membranes, CHO-K1, Membrane
# T1 sequence (P08172 whole entry): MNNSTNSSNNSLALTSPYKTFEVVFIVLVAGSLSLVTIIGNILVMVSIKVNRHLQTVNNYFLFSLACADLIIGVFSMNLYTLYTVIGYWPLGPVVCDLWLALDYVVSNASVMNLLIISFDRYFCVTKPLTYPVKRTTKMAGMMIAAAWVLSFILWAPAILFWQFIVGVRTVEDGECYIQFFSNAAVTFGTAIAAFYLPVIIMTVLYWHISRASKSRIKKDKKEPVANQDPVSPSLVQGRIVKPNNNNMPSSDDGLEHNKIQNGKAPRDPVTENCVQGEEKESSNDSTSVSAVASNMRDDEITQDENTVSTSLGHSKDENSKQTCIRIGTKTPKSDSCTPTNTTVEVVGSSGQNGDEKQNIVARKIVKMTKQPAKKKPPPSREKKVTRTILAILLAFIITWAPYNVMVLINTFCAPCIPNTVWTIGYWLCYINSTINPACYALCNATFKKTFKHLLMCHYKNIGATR
# [2] = target: 5-hydroxytryptamine receptor 1B (Rattus norvegicus, UniProt P28564); type: cell membranes, Wistar, Cerebral cortex, Membrane
# 5-hydroxytryptamine receptor 1B, sequence (P28564 whole entry): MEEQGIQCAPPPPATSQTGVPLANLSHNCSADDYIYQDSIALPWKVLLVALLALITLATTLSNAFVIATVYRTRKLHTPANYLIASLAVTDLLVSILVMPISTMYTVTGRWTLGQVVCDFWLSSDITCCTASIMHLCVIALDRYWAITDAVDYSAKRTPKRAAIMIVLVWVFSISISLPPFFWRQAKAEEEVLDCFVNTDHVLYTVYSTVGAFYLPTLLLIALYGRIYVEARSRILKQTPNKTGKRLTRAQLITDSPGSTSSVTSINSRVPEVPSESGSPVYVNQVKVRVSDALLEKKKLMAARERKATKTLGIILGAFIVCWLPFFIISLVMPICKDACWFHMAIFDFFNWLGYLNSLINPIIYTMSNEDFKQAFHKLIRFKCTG
# [3] = target: T2, Vasoactive intestinal polypeptide receptor 1 (Homo sapiens, UniProt P32241); type: cell membranes, Membrane; conditions: ht-29
# T2 sequence (P32241 whole entry): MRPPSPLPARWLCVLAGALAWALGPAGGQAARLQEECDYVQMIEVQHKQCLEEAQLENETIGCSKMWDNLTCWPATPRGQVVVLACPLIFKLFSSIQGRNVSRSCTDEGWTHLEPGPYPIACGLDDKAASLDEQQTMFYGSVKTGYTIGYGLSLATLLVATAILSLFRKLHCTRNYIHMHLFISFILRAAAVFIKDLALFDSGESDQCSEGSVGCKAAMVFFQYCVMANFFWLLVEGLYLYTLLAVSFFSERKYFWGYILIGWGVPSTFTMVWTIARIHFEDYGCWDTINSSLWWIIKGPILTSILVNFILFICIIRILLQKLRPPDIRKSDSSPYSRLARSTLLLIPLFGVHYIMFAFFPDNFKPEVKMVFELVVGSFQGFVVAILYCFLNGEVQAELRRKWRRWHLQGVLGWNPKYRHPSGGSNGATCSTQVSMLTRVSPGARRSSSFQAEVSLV
# Glycine receptor = Glycine receptor (Rattus norvegicus, UniProt P22771+P24524+P07727+P20781); type: cell membranes, Wistar, Spinal cord, Membrane
# [4] = target: Aldo-keto reductase family 1 member B1 (Rattus norvegicus, UniProt P07943); assay: biochemical; type: tissue-based, Lens of camera-type eye;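 further: inhibition of aldose reductase enzyme activity, measured with DL-glyceraldehyde as the substrate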
# Further: in other assays of this panel Not Active means under 50% inhibition at 10 µM.
# Cannabinoid receptor 1, sequence (P21554 whole entry): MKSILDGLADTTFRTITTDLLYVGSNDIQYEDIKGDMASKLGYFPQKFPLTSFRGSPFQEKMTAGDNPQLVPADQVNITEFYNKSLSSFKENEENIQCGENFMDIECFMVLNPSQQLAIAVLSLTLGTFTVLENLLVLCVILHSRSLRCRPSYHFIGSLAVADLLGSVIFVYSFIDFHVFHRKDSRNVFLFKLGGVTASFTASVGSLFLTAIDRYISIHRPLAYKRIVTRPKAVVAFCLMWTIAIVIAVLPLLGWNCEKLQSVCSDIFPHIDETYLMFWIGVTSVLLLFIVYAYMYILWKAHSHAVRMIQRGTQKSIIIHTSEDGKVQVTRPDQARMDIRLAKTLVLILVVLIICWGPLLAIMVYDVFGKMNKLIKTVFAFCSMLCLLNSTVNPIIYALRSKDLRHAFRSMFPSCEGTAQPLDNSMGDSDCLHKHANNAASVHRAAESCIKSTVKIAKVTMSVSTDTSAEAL
molecule,measurement,setting,value
CCCCC(=O)N(Cc1ccc(-c2ccccc2-c2nnn[nH]2)cc1)[C@H](C(=O)O)C(C)C,IC50,Cannabinoid receptor 1; chem-1,Not Active
same,IC50,[1]; cho-k1,Not Active
same,IC50,[2],Not Active
same,IC50,[3],Not Active
same,IC50,Glycine receptor,Not Active
same,IC50,[4],Not Active
O=C(O)COc1ccc(C(=O)c2cccs2)c(Cl)c1Cl,IC50,Cannabinoid receptor 1; chem-1,Not Active
same,IC50,[1]; cho-k1,Not Active
same,IC50,[2],Not Active
same,IC50,[3],Not Active
same,IC50,Glycine receptor,Not Active
same,IC50,[4]; read-out: IC50,3.21 µM
CN1[C@@H]2CC[C@H]1C[C@@H](OC(c1ccccc1)c1ccccc1)C2 [BENZTROPINE],IC50,Cannabinoid receptor 1; chem-1,Not Active
same,IC50,[2],Not Active
same,IC50,[3],Not Active
same,IC50,Glycine receptor,Not Active
same,IC50,[4],Not Active
C[C@@](Cc1ccc(O)c(O)c1)(NN)C(=O)O.O [CARBIDOPA],IC50,Cannabinoid receptor 1; chem-1,Not Active
same,IC50,[1]; cho-k1,Not Active
same,IC50,[2],Not Active
same,IC50,[3],Not Active
same,IC50,Glycine receptor,Not Active
same,IC50,[4],Not Active
CN1CCN(C2=Nc3cc(Cl)ccc3Nc3ccccc32)CC1 [CLOZAPINE],IC50,Cannabinoid receptor 1; chem-1,Not Active
same,IC50,[3],Not Active
same,IC50,Glycine receptor,Not Active
same,IC50,[4],Not Active
CC(C)NC[C@@H](O)COc1cccc2ccccc12 [DEXPROPRANOLOL],IC50,Cannabinoid receptor 1; chem-1,Not Active
same,IC50,[1]; cho-k1,Not Active
same,IC50,[2],Not Active
same,IC50,[3],Not Active
same,IC50,Glycine receptor,Not Active
same,IC50,[4],Not Active
CC(C)NC[C@H](O)COc1cccc2ccccc12 [LEVOPROPRANOLOL],IC50,Cannabinoid receptor 1; chem-1,Not Active
same,IC50,[1]; cho-k1,Not Active
same,IC50,[2],Not Active
same,IC50,[3],Not Active
same,IC50,Glycine receptor,Not Active
same,IC50,[4],Not Active
"O=C(O)CCCCC1CCSS1 (stereo not drawn) [LIPOIC ACID, ALPHA]",IC50,Cannabinoid receptor 1; chem-1,Not Active
same,IC50,[1]; cho-k1,Not Active
same,IC50,[2],Not Active
same,IC50,[3],Not Active
same,IC50,Glycine receptor,Not Active
same,IC50,[4],Not Active
CN(C)C(=O)C(CCN1CCC(O)(c2ccc(Cl)cc2)CC1)(c1ccccc1)c1ccccc1 [LOPERAMIDE],IC50,Cannabinoid receptor 1; chem-1,Not Active
same,IC50,[1]; cho-k1,Not Active
same,IC50,[2],Not Active
same,IC50,[3],Not Active
same,IC50,Glycine receptor,Not Active
same,IC50,[4],Not Active
Clc1ccc(COC(Cn2ccnc2)c2ccc(Cl)cc2Cl)c(Cl)c1 (stereo not drawn) [MICONAZOLE],IC50,Cannabinoid receptor 1; read-out: IC50,21 µM
same,Ki,Cannabinoid receptor 1; read-out: Ki,16.6 µM
same,IC50,[1]; read-out: IC50,4.34 µM
same,Ki,[1]; read-out: Ki,1.54 µM
same,IC50,[2]; read-out: IC50,20.6 µM
same,Ki,[2]; read-out: Ki,9.36 µM
same,IC50,[3],Not Active
same,IC50,Glycine receptor,Not Active
same,IC50,[4],Not Active
Oc1ccc2c3c1O[C@H]1[C@@H](O)CC[C@@]4(O)[C@@H](C2)N(CC2CCC2)CC[C@]314 [NALBUPHINE],IC50,Cannabinoid receptor 1; chem-1,Not Active
same,IC50,[1]; cho-k1,Not Active
same,IC50,[2],Not Active
same,IC50,[3],Not Active
same,IC50,Glycine receptor,Not Active
same,IC50,[4],Not Active
C[C@]12C=CC(=O)C=C1CC[C@@H]1[C@@H]2C(=O)C[C@@]2(C)[C@H]1CC[C@]2(O)C(=O)CO [PREDNISONE],IC50,Cannabinoid receptor 1; chem-1,Not Active
same,IC50,[1]; cho-k1,Not Active
same,IC50,[2],Not Active
same,IC50,[3],Not Active
same,IC50,Glycine receptor,Not Active
same,IC50,[4],Not Active
OCCOCCN1CCN(C2=Nc3ccccc3Sc3ccccc32)CC1 [QUETIAPINE],IC50,Cannabinoid receptor 1; chem-1,Not Active
same,IC50,[2],Not Active
same,IC50,[3],Not Active
same,IC50,Glycine receptor,Not Active
same,IC50,[4],Not Active
COC(=O)[C@H]1[C@H]2C[C@@H]3c4[nH]c5cc(OC)ccc5c4CCN3C[C@H]2C[C@@H](OC(=O)c2cc(OC)c(OC)c(OC)c2)[C@@H]1OC [RESERPINE],IC50,Cannabinoid receptor 1; chem-1,Not Active
same,IC50,[1]; cho-k1,Not Active
same,IC50,[2],Not Active
same,IC50,[3],Not Active
same,IC50,Glycine receptor,Not Active
same,IC50,[4],Not Active
O=C(O)c1ccccc1O [SALICYLIC ACID],IC50,Cannabinoid receptor 1; chem-1,Not Active
same,IC50,[1]; cho-k1,Not Active
same,IC50,[2],Not Active
same,IC50,[3],Not Active
same,IC50,Glycine receptor,Not Active
same,IC50,[4],Not Active
C[S+]([O-])c1ccc(-c2nc(-c3ccncc3)c(-c3ccc(F)cc3)[nH]2)cc1 (stereo not drawn) [SB-203580],IC50,Cannabinoid receptor 1; chem-1,Not Active
same,IC50,[1]; cho-k1,Not Active
same,IC50,[2],Not Active
same,IC50,[3],Not Active
same,IC50,Glycine receptor,Not Active
same,IC50,[4],Not Active
CC1CCC(NC(=O)N(CCCl)N=O)CC1 (stereo not drawn) [SEMUSTINE],IC50,Cannabinoid receptor 1; chem-1,Not Active
same,IC50,[1]; cho-k1,Not Active
same,IC50,[2],Not Active
same,IC50,[3],Not Active
same,IC50,Glycine receptor,Not Active
same,IC50,[4],Not Active
O=C1C[C@@H]2OCC=C3CN4CC[C@]56c7ccccc7N1[C@H]5[C@H]2[C@H]3C[C@H]46 [STRYCHNINE],IC50,Cannabinoid receptor 1; chem-1,Not Active
same,IC50,[1]; cho-k1,Not Active
same,IC50,[2],Not Active
same,IC50,[3],Not Active
same,IC50,[4],Not Active
C[N+](C)(C)CCOC(=O)CCC(=O)OCC[N+](C)(C)C.[Cl-].[Cl-] [SUCCINYLCHOLINE CHLORIDE],IC50,Cannabinoid receptor 1; chem-1,Not Active
same,IC50,[1]; cho-k1,Not Active
same,IC50,[2],Not Active
same,IC50,[3],Not Active
same,IC50,Glycine receptor,Not Active
same,IC50,[4],Not Active
Nc1ccc(S(=O)(=O)NC(=O)c2ccccc2)cc1 [SULFABENZAMIDE],IC50,Cannabinoid receptor 1; chem-1,Not Active
same,IC50,[1]; cho-k1,Not Active
same,IC50,[2],Not Active
same,IC50,[3],Not Active
same,IC50,Glycine receptor,Not Active
same,IC50,[4],Not Active
CCCCCCCCNC(C)C(O)c1ccc(SC(C)C)cc1 (stereo not drawn) [SULOCTIDIL],IC50,Cannabinoid receptor 1; chem-1,Not Active
same,IC50,[1]; cho-k1,Not Active
same,IC50,[2],Not Active
same,IC50,[3],Not Active
same,IC50,Glycine receptor,Not Active
same,IC50,[4],Not Active
O=c1[nH]c(=O)n(C2CCCO2)cc1F (stereo not drawn) [TEGAFUR],IC50,Cannabinoid receptor 1; chem-1,Not Active
same,IC50,[1]; cho-k1,Not Active
same,IC50,[2],Not Active
same,IC50,[3],Not Active
same,IC50,Glycine receptor,Not Active
same,IC50,[4],Not Active
CC(=N)S [THIOACETAMIDE],IC50,Cannabinoid receptor 1; chem-1,Not Active
same,IC50,[1]; cho-k1,Not Active
same,IC50,[2],Not Active
same,IC50,[3],Not Active
same,IC50,Glycine receptor,Not Active
same,IC50,[4],Not Active
Cc1ccc(C(=O)c2ccc(CC(=O)O)n2C)cc1 [TOLMETIN],IC50,Cannabinoid receptor 1; chem-1,Not Active
same,IC50,[1]; cho-k1,Not Active
same,IC50,[2],Not Active
same,IC50,[3],Not Active
same,IC50,Glycine receptor,Not Active
same,IC50,[4]; read-out: IC50,2.15 µM
CC(=O)OCC(COC(C)=O)OC(C)=O [TRIACETIN],IC50,Cannabinoid receptor 1; chem-1,Not Active
same,IC50,[1]; cho-k1,Not Active
same,IC50,[2],Not Active
same,IC50,[3],Not Active
same,IC50,Glycine receptor,Not Active
same,IC50,[4],Not Active
CN1CCN(CCCN2c3ccccc3Sc3ccc(C(F)(F)F)cc32)CC1 [TRIFLUOPERAZINE],IC50,Cannabinoid receptor 1; chem-1,Not Active
same,IC50,[1]; cho-k1,Not Active
same,IC50,[2],Not Active
same,IC50,[3],Not Active
same,IC50,Glycine receptor,Not Active
same,IC50,[4],Not Active
TRANSPLATIN,IC50,Cannabinoid receptor 1; chem-1,Not Active
same,Ki,Cannabinoid receptor 1; chem-1,Not Active
same,IC50,[1]; cho-k1,Not Active
same,Ki,[1]; cho-k1,Not Active
same,IC50,[2],Not Active
same,Ki,[2],Not Active
same,IC50,[3],Not Active
same,Ki,[3],Not Active
same,IC50,Glycine receptor,Not Active
same,Ki,Glycine receptor,Not Active
same,IC50,[4],Not Active
same,Ki,[4],Not Active
ZIRCONIUM(IV) CHLORIDE,IC50,Cannabinoid receptor 1; chem-1,Not Active
same,Ki,Cannabinoid receptor 1; chem-1,Not Active
same,IC50,[1]; cho-k1,Not Active
same,Ki,[1]; cho-k1,Not Active
same,IC50,[2],Not Active
same,Ki,[2],Not Active
same,IC50,[3],Not Active
same,Ki,[3],Not Active
same,IC50,Glycine receptor,Not Active
same,Ki,Glycine receptor,Not Active
same,IC50,[4],Not Active
same,Ki,[4],Not Active
